According to patent EP0358880B1, “Use of retinoids” (F. HOFFMANN-LA ROCHE AG, priority 1988, dated 1990):
Marks after values point to notes of the source that are not given here.

How the values were obtained:
[1] = system: UVB-Induced Dermal Damage in the Hairless Mouse; experiment: Repair of UVB-induced dermal damage in the hairless mouse (repair zone by histology, Luna's stain, image analyzer); assay type: in vivo, Hairless mice (HRS/J strain); settings: three times per week, 10 weeks, total area per twenty microscopic fields
Description: Hairless mice (HRS/J strain, Jackson Labs, 5-7 weeks old at the start of the experiments) were irradiated three times per week with a bank of 8 Westinghouse® Sunlamps (FS40) placed about 20cm above the animals. The radiation dose was controlled by an International Light Model IL844A Phototherapy Exposure Control and a detector. The UVB dosing schedule was such that individual doses, seldom exceeding 0.06J/cm², caused minimal erythema but no burning or scarring. There was significant elastosis, detected by histology, after a total dose of about 3.5J/cm²: this was confirmed in measurements of elastin in whole skin by means of a radioimmunoassay for desmosine. Desmosine is found in elastin hydrolysates and is derived from crosslinks in the elastin molecule; it is a reliable index of total elastin. Typically, desmosine increased by about 2-3 fold after 3.5J/cm² of UVB irradiation. To effect repair of the dermal damage, the UVB irradiation was discontinued and animals were treated three times per week with various concentrations of the compounds of formula I dissolved in acetone. Solutions were made up freshly every week at concentrations such that the dose was delivered in 100µl acetone and applied topically to an area of about 10 cm² on the back of the animal with a plastic pipette; a control group treated with acetone alone was also included. After 10 weeks of treatment the animals were sacrificed, skin samples were taken and processed by standard methods. A six µm [micron] section from each animal was stained for elastin with Luna's stain and the degree of repair measured quantitatively. In this model, repair is defined by the appearance of a normalized dermis extending from the epidermis down to the layer of compressed elastin. The extent of repair was reflected by the width of this zone. In these studies, the area of the zone on a standard length of histological section was measured by an image analyzer and the results are given as total area in mm² per twenty microscopic fields. Data was analyzed by Student's t-test. The results are given in Table I. In Table I, and Table II each group dosed at a particular concentration of compound of formula I contained six to ten animals.

[2] = system: Wrinkles Produced in Hairless Mice by UVB-Irradiation; experiment: Effect on wrinkles produced in hairless mice by UVB irradiation (skin replica, visual Wrinkle Index); assay type: in vivo
Description: Hairless mice (HRS/J strain, Jackson Labs, 5-7 weeks old at the start of the experiments) were irradiated three times per week with a bank of 8 Westinghouse® Sunlamps (FS40) placed about 20cm above the animals. The radiation dose was controlled by an International Light Model IL844A Phototherapy Exposure Control and a detector. The UVB dosing schedule was such that individual doses, seldom exceeding 0.06J/cm², caused minimal erythema but no burning or scarring. There was significant elastosis, detected by histology, after a total dose of about 3.5J/cm²: this was confirmed in measurements of elastin in whole skin by means of a radioimmunoassay for desmosine. Desmosine is found in elastin hydrolysates and is derived from crosslinks in the elastin molecule; it is a reliable index of total elastin. Typically, desmosine increased by about 2-3 fold after 3.5J/cm² of UVB irradiation. To effect repair of the dermal damage, the UVB irradiation was discontinued and animals were treated three times per week with various concentrations of the compounds of formula I dissolved in acetone. Solutions were made up freshly every week at concentrations such that the dose was delivered in 100µl acetone and applied topically to an area of about 10 cm² on the back of the animal with a plastic pipette; a control group treated with acetone alone was also included.
One skin replica for each animal was taken of these areas using a liquid dental impression material (SILFLO® - Flexico Developments Ltd., England). Wrinkles appeared in these impressions as ridges which cast a shadow when illuminated with low angle light. A characteristic of the wrinkling pattern was the occurrence of the ridges in a regularly-spaced array about 2-mm apart. The extent of wrinkling was visually assessed using this line pattern and assigned a value (Wrinkle Index) of zero to 4 with zero representing complete effacement of wrinkling and 4 representing the maximum degree of wrinkling. It was observed that compounds of formula I caused a dose-dependent effacement of the wrinkles with ED₅₀ values in the microgram range.

In the case of `C/C(=C\c1ccc(SC(=O)N(C)C)cc1)c1ccc2c(c1)C(C)(C)CCC2(C)C` [Compound A], the “Repair Zone” value ([1]; 0.1 µg topical in 100 µl acetone) is reported as 0.005 +/- 0.001 mm², the “Repair Zone” value ([1]; 0.5 µg topical in 100 µl acetone) is reported as 0.006 +/- 0.003 mm² and the “Repair Zone” value ([1]; 2.0 µg topical in 100 µl acetone, P < 0.05 vs Control) is reported as 0.021 +/- 0.003* mm². The “Repair Zone” value ([1]; 10.0 µg topical in 100 µl acetone) was 0.015 +/- 0.004 mm², the “Repair Zone” value ([1]; 50.0 µg topical in 100 µl acetone, P < 0.05 vs Control) was 0.025 +/- 0.007* mm² and the “Wrinkle Index” value ([2]; 0.1 µg topical, scale zero (complete effacement) to 4 (maximum wrinkling)) was 1.4 +/- 0.5. The “Wrinkle Index” value ([2]; 0.5 µg topical, scale zero to 4, P < 0.05 vs Control) was 1.0 +/- 0.3*, the “Wrinkle Index” value ([2]; 2.0 µg topical, scale zero to 4, P < 0.01 vs Control) was 0.8 +/- 0.2** and the “Wrinkle Index” value ([2]; 10.0 µg topical, scale zero to 4, P < 0.001 vs Control) was 0.3 +/- 0.1***. For the same compound, the “Wrinkle Index” value ([2]; 50.0 µg topical, scale zero to 4, P < 0.001 vs Control) was 0.3 +/- 0.1***.
